{"source": "patent US20250249025A1", "about": "“DRUG DELIVERY CARRIER UTILIZING PROPERTY OF D-ALLOSE BEING UPTAKEN BY CANCER CELL, DRUG DELIVERY METHOD, AND COMPOSITION FOR TREATING RENAL CELL CARCINOMA” (NATIONAL UNIVERSITY CORPORATION KAGAWA UNIVERSITY, priority 2019, published 2025)", "key": {"[1]": {"tested_on": "human bladder carcinoma cell line J82", "assay": "Rare sugar uptake experiment, sugar content in disrupted cell suspension of J82", "assay_type": "cell-based", "method": "An uptake amount of a rare sugar, which had been added to a medium, into carcinoma cells was analyzed using the cell lines of three types of cancers. As the rare sugar, four kinds, that is, D-allose, D-allulose (D-psicose), L-allulose (L-psicose), and allitol were used, while D-glucose and fructose were used as a monosaccharide which was not a rare sugar.\nCells of each of the cell lines were cultured in RPMI-1640 media and during culturing, six sugars were each added to the resulting media and cultured. After culturing, an amount of each sugar taken up into the cells was analyzed. The medium to which no sugar was added during culturing was used as a control.\nUsed were human bladder carcinoma cell lines (RT112, 253), and J82), human prostatic carcinoma cell lines (LNCa, Du145, and PC-3), and human renal cell carcinoma cell lines (ACHN, Caki-I, and Caki-II).\nAfter cells were cultured in RPMI-1640 (2000 mg D-glucose/L) media, the above monosaccharides and rare sugars were added to the resulting media, respectively. Described specifically, they were following seven combinations: RPMI-1640 alone (control), RPMI-1640+D-glucose, RPMI-1640+L-allulose, RPMI-1640+D-allulose, RPMI-1640+D-fructose, RPMI-1640+D-allose, and RPMI-1640+D-allitol. The final concentration of the sugar in the medium was adjusted to 10 mM and no sugar was added in the control.\nFive-ml portions of a 3.0×10^4 cells/ml cell suspension prepared using RPMI-1640 were seeded in dishes having a diameter of 6 cm (1.5×10^5 cells/dish) and cultured for 24 hours in the RPMI-1640 medium containing 2000 mg/l of D-glucose as a nutrient source. Twenty-four hours later, the media were changed to the culture solutions containing the monosaccharides and rare sugars described above in 2), respectively, followed by culturing for 48 hours.\nAfter culturing for 48 hours, the attached human carcinoma cells were mechanically separated and collected in a Spitz tube together with the culture solution and floating cells. After the supernatant formed by centrifugation (4° C., 1200 rpm, and 5 minutes) was removed to obtain cell pellets alone, 5 ml of a phosphate buffer physiological saline (PBS) was added for the purpose of washing to obtain a cell suspension of the cell pellets. A gain, the resulting cell suspension was centrifuged at 4° C. and 1200 rpm for 5 minutes and the supernatant was removed. To the cell pellets after washing was added 1 ml of pure water to suspend them therein. Ultrasonic disruption (intensity: 40%, 30 seconds) was then performed and the monosaccharide in the disrupted cell suspension was labeled with ABEE, followed by analysis by HPLC. From the area thus obtained, the sugar content in the cells was determined using a calibration curve. With respect to the ketose, two peaks were found after labeling with ABEE so that the sugar content in the cells was determined from the calibration curves of both peaks."}, "[2]": {"tested_on": "renal cell carcinoma cell line (Caki-II)", "assay": "Cell survival assay (MTT assay), Caki-II", "assay_type": "cell-based, human", "settings": "10 mM, 25 mM and 50 mM in MEM, 24 hours, compared with Control (p<0.05), FIG. 3", "method": "The antitumor effect of rare sugars was analyzed using the three human renal cell carcinoma cell lines (ACHN, Caki-I, and Caki-II) used in Example 1. As the rare sugars, used were the following ten rare sugars: L-allulose, D-allulose, D-allose, L-fructose, D-mannose, L-sorbose, D-tagatose, D-galactose, D-sorbose, and L-tagatose, while as monosaccharides not belonging to rare sugars, D-glucose and D-fructose were used.\nAs a medium, a minimum essential medium (MEM) containing 1000 mg/l of D-glucose was used. By adjusting it to contain 10 mM, 25 mM, and 50 mM of each of the monosaccharides or rare sugars and using thus-obtained MEMs [shown by (10), (25), and (50) in the drawing], an antitumor effect of the rare sugars was evaluated.\nA 5.0×10^4 cells/ml of each of cell suspensions was formed using MEM. The resulting suspension (0.1 ml/well) was distributed in a 96-well plate, followed by culturing for 24 hours. […]\nThe MTT assay is one of test methods for measuring survival and makes use of a color reaction of an insoluble formazan dye (blue) caused by the reduction of MTT which is a tetrazolium salt. […] The cell viability is determined by measuring this color reaction with a microplate reader."}}}
{"smiles": "O=C[C@H](O)[C@H](O)[C@H](O)[C@H](O)CO", "note": "[D-allose]", "values": [{"measurement": "D-glucose content in cell", "setting": "[1]; J82, named sugar added to RPMI-1640 at 10 mM, 48 hours, HPLC after ABEE labeling", "value": 11.2, "unit": "µg"}, {"measurement": "Content in cell of the added sugar", "setting": "[1]; human, 48 h, 10 mM", "value": 0.0, "unit": "µg"}, {"measurement": "Viability", "setting": "[2]", "value": "significantly reduced the viability"}]}
